{
  "source": "patent US12662469B2",
  "about": "(SIRONAX LTD, priority 2018, dated 2026)",
  "data": [
    {"tested_on": "Cell Necrosis", "test": "Cell necrosis assay / cell viability assay (necrosis inhibitor activity)", "assay_type": "cell-based", "conditions": "necrosis inhibitor activity; compounds outside 14-191; read-out: EC50", "units": {"EC50": "nM"}, "values": [
      {"smiles": "O=C(N1CCN(c2ncc3cn[nH]c3n2)CC1)N1N=CC[C@H]1c1cc(F)cc(F)c1", "note": "[Compound 260, (S)-(4-(1H-pyrazolo[3,4-d]pyrimidin-6-yl)piperazin-1-yl)(5-(3,5-difluorophenyl)-4,5-dihydro-1H-pyrazol-1-yl)methanone]", "EC50": "1 to 1000"},
      {"smiles": "O=C(c1cc2sc(OC3CN(C(=O)N4N=CC[C@H]4c4cc(F)cc(F)c4)C3)nc2[nH]1)N1CCC1", "note": "[Compound 261, (S)-azetidin-1-yl(2-((1-(5-(3,5-difluorophenyl)-4,5-dihydro-1H-pyrazole-1-carbonyl)azetidin-3-yl)oxy)-4H-pyrrolo[2,3-d]thiazol-5-yl)methanone]", "EC50": "1 to 1000"},
      {"smiles": "CNc1nc(OC2CN(C(=O)N3N=CC[C@H]3c3cc(F)cc(F)c3)C2)c(F)cc1F", "note": "[Compound 262, (S)-(3-((3,5-difluoro-6-(methylamino)pyridin-2-yl)oxy)azetidin-1-yl)(5-(3,5-difluorophenyl)-4,5-dihydro-1H-pyrazol-1-yl)methanone]", "EC50": "1 to 1000"},
      {"smiles": "N#Cc1ccnc(OC2CN(C(=O)N3N=CC[C@H]3c3cc(F)cc(F)c3)C2)n1", "note": "[Compound 264, (S)-2-((1-(5-(3,5-difluorophenyl)-4,5-dihydro-1H-pyrazole-1-carbonyl)azetidin-3-yd)oxy)pyrimidine-4-carbonitrile]", "EC50": "1 to 1000"},
      {"smiles": "N#Cc1nccc(OC2CN(C(=O)N3N=CC[C@H]3c3cc(F)cc(F)c3)C2)n1", "note": "[Compound 265, (S)-4-((1-(5-(3,5-difluorophenyl)-4,5-dihydro-1H-pyrazole-1-carbonyl)azetidin-3-yl)oxy)pyrimidine-2-carbonitrile]", "EC50": "1 to 1000"},
      {"smiles": "O=C(N1CC(Oc2nc(NCCO)ncc2F)C1)N1N=CC[C@H]1c1cc(F)cc(F)c1", "note": "[Compound 266, (S)-(5-(3,5-difluorophenyl)-4,5-dihydro-H-pyrazol-1-yl)(3-((5-fluoro-2-((2-hydroxyethyl)amino)pyrimidin-4-yl)oxy)azetidin-1-yl)methanone]", "EC50": "1 to 1000"},
      {"smiles": "O=C(N1CC(Oc2nc(Cl)ncc2F)C1)N1N=CC[C@H]1c1cc(F)cc(F)c1", "note": "[Compound 267]", "EC50": "1 to 1000"},
      {"smiles": "CNc1ncc(F)c(OC2CN(C(=O)N3N=CC[C@H]3c3cc(F)cc(F)c3)C2)n1", "note": "[Compound 268, (S)-(5-(3,5-difluorophenyl)-4,5-dihydro-1H-pyrazol-1-yl)(3-((5-fluoro-2-(methylamino)pyrimidin-4-yl)oxy)azetidin-1-yl)methanone]", "EC50": "1 to 1000"},
      {"smiles": "N#CCCNc1ncc(F)c(OC2CN(C(=O)N3N=CC[C@H]3c3cc(F)cc(F)c3)C2)n1", "note": "[Compound 269, (S)-3-((4-((1-(5-(3,5-fluorophenyl)-4,5-dihydro-1H-pyrazole-1-carbonyl)azetidin-3-yl)oxy)-5-fluoropyrimidin-2-yl)amino)propanenitrile]", "EC50": "1 to 1000"},
      {"smiles": "NC(=O)CCNc1ncc(F)c(OC2CN(C(=O)N3N=CC[C@H]3c3cc(F)cc(F)c3)C2)n1", "note": "[Compound 270, (S)-3-((4-((1-(5-(3,5-difluorophenyl)-4,5-dihydro-1H-pyrazole-1-carbonyl)azetidin-3-yl)oxy)-5-fluoropyrimidin-2-yl)amino)propanamide]", "EC50": "1 to 1000"},
      {"smiles": "COc1nc(N2CCN(C(=O)N3N=CC[C@H]3c3cc(F)cc(F)c3)CC2)ncc1F", "note": "[Compound 271, (S)-(5-(3,5-difluorophenyl)-4,5-dihydro-1H-pyrazol-1-yl)(4-(5-fluoro-4-methoxypyrimidin-2-yl)piperazin-1-yl)methanone]", "EC50": "1 to 1000"},
      {"smiles": "CCOC(=O)c1nc(OC2CN(C(=O)N3N=CC[C@H]3c3cc(F)cc(F)c3)C2)sc1Cl", "note": "[Compound 272, ethyl (S)-5-chloro-2-((1-(5-(3,5-difluorophenyl)-4,5-dihydro-1H-pyrazole-1-carbonyl)azetidin-3-yl)oxy)thiazol-4-carboxylate]", "EC50": "1 to 1000"},
      {"smiles": "CNC(=O)c1nc(OC2CN(C(=O)N3N=CC[C@H]3c3cc(F)cc(F)c3)C2)sc1Cl", "note": "[Compound 273, (S)-5-chloro-2-((1-(5-(3,5-difluorophenyl)-4,5-dihydro-1H-pyrazole-1-carbonyl)azetidin-3-yl)oxy)-N-methylthiazole-4-carboxamide]", "EC50": "1 to 1000"}
    ]}
  ]
}
